Earlier results in US20070254858A1, “Contraceptive and Acne Medication Combination and Treatment of Acne and Other Diseases with Reduced Side Effects” (priority 2006, published 2007).
One block for each molecule: values may come before it.

Legend:
[1] = system: androgen (testosterone-like) activity; conditions: 1 mg of progestin; activity of 1 mg of norethindrone taken as baseline
progesterone activity = conditions: 1 mg of progestin; activity of 1 mg of norethindrone taken as baseline
[2] = in vivo
[3] = system: sebaceous gland / sebocytes
severe acne = conditions: within 12 to 16 weeks of isotretinoin treatment

SMILES: C[C@]12CCC(=O)C=C1[C@@H]1C[C@@H]1[C@H]1[C@@H]3[C@@H]4C[C@@H]4[C@@]4(CCC(=O)O4)[C@@]3(C)CC[C@@H]12 [drospirenone]
Androgen Activity [1]: 0 | Progestational Activity (progesterone activity): 1.5

SMILES: C#C[C@]1(OC(C)=O)CC[C@H]2[C@@H]3CCC4=CC(=NO)CC[C@@H]4[C@H]3CC[C@@]21CC (mixture of isomers) [norgestimate]
Progestational Activity (progesterone activity): 1.3

SMILES: C#C[C@]1(O)CC[C@H]2[C@@H]3CCC4=CC(=NO)CC[C@@H]4[C@H]3CC[C@@]21CC (mixture of isomers) [norelgestromin]
Androgen Activity [1]: 1.9 | Progestational Activity (progesterone activity): 1.3

SMILES: C#C[C@]1(OC(C)=O)CC[C@H]2[C@@H]3CCC4=C[C@@H](OC(C)=O)CC[C@@H]4[C@H]3CC[C@@]21C [ethynodiol diacetate]
Progestational Activity (progesterone activity): 1.4

SMILES: C#C[C@]1(OC(C)=O)CC[C@H]2[C@@H]3CCC4=CC(=O)CC[C@@H]4[C@H]3CC[C@@]21C [norethindrone acetate]
Progestational Activity (progesterone activity): 1.2

SMILES: C#C[C@]1(O)CC[C@H]2[C@@H]3CCC4=CCCC[C@@H]4[C@H]3C(=C)C[C@@]21CC [desogestrel]
Progestational Activity (progesterone activity): 9

SMILES: C#C[C@]1(O)CC[C@H]2[C@@H]3CCC4=CC(=O)CC[C@@H]4[C@H]3CC[C@@]21C [norethindrone]
Progestational Activity (progesterone activity): 1

effect of food on absorption (drug taken with food): absorption is enhanced | accumulation in the skin (during long term administration): no progressive accumulation | placental transfer (oral isotretinoin): crosses the placenta | half-life (oral isotretinoin, compared to etretinate): 7 to 37 h
SMILES: CC1=C(/C=C/C(C)=C/C=C/C(C)=C\C(=O)O)C(C)(C)CCC1 [isotretinoin, 13-cis-retinoic acid]
most significant side effect [2]: teratogenicity (birth defects) | reduction of sebocyte lipid synthesis ([3]; daily doses as low as 0.1 mg/kg after four weeks): 75% | reduction of sebaceous gland size ([3]; in vivo): up to 90% | parent drug in urine (oral isotretinoin): No parent drug is identified in the urine | people with severe acne in complete or near complete cure (severe acne): Up to 90%

SMILES: C#CC1(O)CC[C@H]2[C@@H]3CCC4=CC(=O)CC[C@@H]4[C@H]3CC[C@@]21CC (mixture of isomers) [dl-norgestrel]
Progestational Activity (progesterone activity): 2.6
